Measurements published in patent US8114888B2, “Isothiazoloquinolones and related compounds as anti-infective agents” (Achillion Pharmaceuticals, Inc., priority 2005, dated 2012).

Columns and labels:
[1] = Cell viability staining with Alamar Blue (compound cytotoxicity); assay type: cell-based; settings: positive control with known CC50
Procedure: To determine whether the microcidal effect observed against S. aureus and E. coli is specific to bacterial cells, compounds are screened for cell viability effects on several human cell types.
Optimal cell density is first determined by plating cells in a 96-well plate standard sterile tissue culture plates in 100 μl media, 10% FBS at six cell densities from 500 cells/well to 15,000 cells/well. A cell free well containing only media is used as a control. Cells are incubated at 37° C. in a 5% CO2 incubator for 24 hours. 10% culture volume (10 ul) of Alamar Blue (Biosource, DAL1100, 100 mL) is then added. Cells are incubated at 37° C. in a 5% CO2 incubator and read in a Victor V plate reader, 544 nm excitation, 590 nm emission, at 3, 4, and 24 hours after the addition of Alamar Blue. The cell number vs. change in fluorescence is plotted to determine linearity of signal vs. cell number. The optimal density varies between 500-15,000 cells/well depending on the specific cell type. […]
Cells are plated at optimal cell density in a standard sterile tissue culture 96 well plate, and incubated at 37° C. […] Plates are incubated 4 hours at 37° C. in a 5% CO2 incubator and read in a Victor V plate reader, 544 nm excitation, 590 nm emission. […]
The change in fluorescence vs. concentration of test compound is plotted to determine the cytotoxicity of the compound. […]

Row | melting point | Compound | CC50 ([1]; Chinese hamster, CHO cells (Chinese hamster ovary)) [µM] | CC50 ([1]; human, Hep 2 cells (laryngeal carcinoma)) [µM]
1 | > 241 °C (dec.) | O=c1[nH]sc2c1c(=O)c1cc(F)c(C3=CCNCC3)cc1n2C1CC1 |  | 
2 | > 257 °C (dec.) | NC1CCc2cc(-c3cc4c(cc3F)c(=O)c3c(=O)[nH]sc3n4C3CC3)ccc2C1 (racemic) [Compound 31, (rac)-7-(6-Amino-5,6,7,8-tetrahydronaphthalen-2-yl)-9-cyclopropyl-6-fluoro-9H-isothiazolo[5,4-b]quinoline-3,4-dione] |  | 
3 |  | CC(C)(C)c1ccc(C(O)CCCN2CCC(C(O)(c3ccccc3)c3ccccc3)CC2)cc1 (stereo not shown) [Terfenadine] | 4.3 to 6.5 | 3 to 5
